Converted amounts (≈) assume the structure as drawn. Read-outs that look alike come from different tables or passages of the source.
Tests used:
C. jejuni 81–176 [1] = assay: Minimum inhibitory concentration (MIC), two-fold serial dilution, OD600 end point; type: cell-based; conditions: Campylobacter jejuni, 24 h, read-out: C. jejuni MIC (minimum inhibitory concentration)
Procedure: A primary screen was conducted using the highly invasive C. jejuni strain 81–176 originally isolated from a diarrheic patient (Korlath et al., [1985]). The C. jejuni strains were routinely grown on Mueller-Hinton (MH; Becton Dickinson and Company, MD) agar under microaerobic conditions (85% N2, 10% CO2, and 5% O2) in a DG250 Microaerophilic Workstation (Microbiology International, MD) for 18 h, washed with MH broth and adjusted to a final OD600 of 0.1 in MH broth. One hundred micro liter of culture was transferred to 96-well plates and 1 μL (200 μM/μL) of library compounds and controls were added using a pin tool (Wallace et al., [2011]). Growth controls including DMSO (1% final concentration), kanamycin (50 μg), and chloramphenicol (20 μg) were added to duplicate wells along with 100 μL un-inoculated MH broth as sterility control. The final concentration was 200 μM for each small molecule. Prior to growth, an aluminum foil was applied (to avoid drug degradation) and plates were then incubated at 42°C, under microaerobic conditions for 24 h. The end-point OD600 was measured in a Sunrise TM Tecan plate reader (Tecan Group Ltd. San Jose, CA). We initially tried to exploit the automatic kinetic OD reader option of the Sunrise TM Tecan system but were un-successful. Maintenance of the microaerophilic growth conditions required by C. jejuni was difficult in the Tecan reader which is ideally suited for aerobic bacteria. Therefore, we used an end point assay. The quality of high-throughput screen (HTS) was evaluated by calculating the Z′-factor as described previously (Zhang et al., [1999]). Z′-factor is defined as 1−((3σp + 3σn)/|μp − μn|)) where “σp” and “σn” are the standard deviations of the positive (culture+ DMSO) and negative (culture+antibiotics) controls, respectively and “μp” and “μn” are the means of the positive and negative controls, respectively. A Z′-factor >0.5 indicates a robust assay (Zhang et al., [1999]).
The percentage of C. jejuni growth inhibition was calculated as mentioned previously (De La Fuente et al., [2006]) using the following formula: percentage of inhibition = 100 × (OD negative control–OD test compound)/(OD negative control–OD positive control). Compounds that inhibited Campylobacter growth ≥ 99.0% were selected as primary hits. The culture in wells with ≥ 99% growth inhibition were streaked onto fresh MH agar, as were the sterility, antibiotic and no compound control wells. Bacterial growth was measured on the plate after 48 h at 42°C. Based on the recovery of C. jejuni on MH agar plates, the compound was classified as either “bacteriostatic” or “bactericidal.”
The dose-dependent effect of 35 compounds against the highly pathogenic C. jejuni 81–176 strain was tested. Compounds were two-fold serially diluted (200 to 12.5 μM). One hundred micro liter of the OD600 0.1 adjusted C. jejuni culture was pipetted in to each well of a 96 well plate, treated with 1 μL of diluted compound and the plate was incubated at 42°C under microaerobic conditions for 24 h. Growth inhibition was assessed as above.
The minimal concentrations of compounds that inhibit the growth of C. jejuni were tested by two-fold serial dilution of each of compound in media as well as in DMSO. The results were reproducible irrespective of diluent used; however, a few compounds precipitated when media was used as a diluent. A recent study also described the in-solubility issues with a few small molecule compounds when dissolved in media for MIC determination (Selin et al., [2015]). […] Among the 21 compounds, 16 were effective at 50 μM, 7 were effective at 25 μM, and 4 were effective at 12.5 μM. We selected top-12 bactericidal compounds with MICs varying from 100 to 12.5 μM concentration for further downstream study.

C. jejuni 81–176 [2] = assay: Sequential passage resistance assay at sub-lethal dose (0.5X MIC), 15 passages; type: cell-based, Campylobacter jejuni; conditions: liquid MH with 0.5X MIC
Procedure: Single step and sequential passage resistance assays were performed as described previously with a few modifications (Ling et al., [2015]; Xu et al., [2015]). The top 12 hit compounds were tested in this experiment. The MIC values for each of these 12 compound as determined in above assay was used for C. jejuni resistance studies using lethal (5X MIC) and sub-lethal (0.5X MIC) concentrations.
Overnight grown C. jejuni 81–176 culture was washed and suspended in MH broth to an OD600 of 0.05 (~10^7 CFU). Five milli liter of the OD adjusted fresh culture was mixed with 0.5X MIC of the relevant test compound (concentration allowing > 50% growth inhibition). Campylobacter jejuni cultured in 20 μg/mL chloramphenicol, or 50 μg/mL kanamycin, or 2% DMSO, or non-amended MH broth were used as controls. The bacteria were incubated at 42°C with shaking at 200 rpm for 24 h in the dark. Following incubation, cultures were centrifuged at 4700 × g for 10 min at room temperature. The supernatant was discarded; bacteria were resuspended in 5 ml of fresh MH containing 0.5X MIC of the same small molecule. This procedure was repeated 14 times. Following 15 passages, bacterial suspensions were assessed for resistance to the test compound by plating on MH media containing 1X MIC of small molecules.
Our rationale for performing the resistance studies was to determine the ability of C. jejuni strain to develop resistance to these compounds when cultured on solid media with a lethal dose (5X MIC) or in liquid media with a sub-lethal dose (0.5X MIC). The presence of resistant colonies in any of these assays would reduce the attractiveness of the relevant small molecule while an absence of resistant colonies would indicate a likely inability of C. jejuni to develop resistance in general. […] Since C. jejuni is the major cause of human campylobacteriosis (95% of the cases); (Butzler, [2004]) and due to limitation of compounds availability, we only performed resistance studies on C. jejuni 81–176. However, for future commercial application of these antimicrobials, more in-depth characterization of potential resistance by other C. jejuni strains and C. coli is warranted.

Hemolytic activity = type: cell-based; conditions: 10% sheep RBCs, 37°C
Procedure: The hemolytic activity of the top-12 compounds were determined as previously described (Strom et al., [2003]; Selin et al., [2015]). Briefly, 500 μL of sheep red blood cells (LAMPIRE Biological Laboratories, Pipersville, PA) were washed three times in PBS and resuspended in 5 mL of PBS to prepare a working concentration of 10% RBCs. Two hundred micro liter of the 10% RBCs suspension was incubated with 200 μM concentrations of compounds for 1 h at 37°C in a 96 well plate. After incubation, the plate was centrifuged (4000 rpm, 5 min) and placed on ice for few min. Supernatants from each well was transferred to a fresh 96 well plate and OD of 540 nm was measured. The PBS and 0.1% Triton X-100 were used as negative and positive controls, respectively. A range of 1–10% DMSO was also used as a control. A percent hemolysis was calculated using the following formula:
% Hemolysis=(OD of compound−OD of DMSO/ OD of Triton-X100)×100
Two independent experiments in triplicate were performed and results were expressed as the % average hemolysis.

[3] = C. jejuni 81–176, 42°C microaerobic, dilution 200 to 12.5 μM
[4] = sheep red blood cells (10% suspension)

Structure (SMILES) | MIC (C. jejuni 81–176 [1]; [3]) [µM] | Resistance, passage 0.5X MIC (C. jejuni 81–176 [2]) | hemolysis at 1 h, 200 µM (Hemolytic activity; [4]) [%] | MIC (C. jejuni 81–176 [1]) [µM] | hemolysis at 1 h, 200 µM (Hemolytic activity) [%]
O=S(=O)(Nc1cccc(C(F)(F)F)c1)c1ccc(Br)cc1 [Comp 1] | 50 (≈ 19 µg/mL) | No | 7.4 |  | 
COc1ccc(CN2CCN(c3ccc(F)cc3)CC2)cc1C [Comp 2] |  | No |  | 100 (≈ 31.4 µg/mL) | 0
CN(C)c1ccc(CN2CCN(c3ccccc3Cl)CC2)cc1 [Comp 3] |  | No |  | 12.5 (≈ 4.12 µg/mL) | 0
Clc1ccc(N2CCN(Cc3ccsc3)CC2)cc1 [Comp 4] | 50 (≈ 14.6 µg/mL) | No | 0 |  | 
Cc1ccc(N2CCN(C/C=C/c3ccccc3)CC2)cc1 [Comp 5] | 50 (≈ 14.6 µg/mL) | No | 0 |  | 
O=c1c(Cl)c(Cl)cnn1-c1ccccc1Cl [Comp 7] | 12.5 (≈ 3.44 µg/mL) | No | 0 |  | 
Cc1c(C(C)NCc2cccc(OC3CCCC3)c2)cnn1-c1ccccc1 (stereo not drawn) [Comp 10] | 50 (≈ 18.8 µg/mL) | No | 0 |  | 
COc1ccc(CNCc2ccc(Cl)s2)cc1OCC(O)CN1CCCC1 (stereo not drawn) [Comp 12] | 100 (≈ 41.1 µg/mL) | No | 0 |  | 
CN(Cc1cccc2cnccc12)CC1CCCN(CCc2ccc(F)cc2)C1 (stereo not drawn) [Comp 13] | 12.5 (≈ 4.89 µg/mL) | No | 0 |  | 
CN(CC(O)COc1ccccc1CNC1(c2ccccc2)CC1)C1CCCCC1 (stereo not drawn) [Comp 17] | 12.5 (≈ 5.11 µg/mL) | No | 0 |  | 
CN(Cc1ccccc1)CC1CCCN(CCc2ccc(F)cc2)C1 (stereo not drawn) [Comp 18] | 25 (≈ 8.51 µg/mL) | No | 0 |  | 
CC(=O)Nc1ccc(CN(C)CC2CCCN(CCc3cccc(C(F)(F)F)c3)C2)cc1 (stereo not drawn) [Comp 22] | 12.5 (≈ 5.59 µg/mL) | No | 0 |  | 

— publication PMC4821856, “Novel Anti-Campylobacter Compounds Identified Using High Throughput Screening of a Pre-selected Enriched Small Molecules Library” (Frontiers in Microbiology, 2016)
